Values of other authors in patent US6060616A, “Bis-platinum complexes with polymethylene derivatives as ligands having antitumor activity” (Hoffmann-La Roche Inc., priority 1998, dated 2000).

Details: clinical use, background

## N.N.O=C([O-])C1(C(=O)[O-])CCC1.[Pt+2] [carboplatin, [Pt(NH3)2(CBDCA)]]
  nephrotoxicity: reduction in the nephrotoxic effects
